The values that follow come from patent US7629340B2, “N-(6-membered aromatic ring)-amido anti-viral compounds” (SmithKline Beecham Corporation, priority 2005, dated 2009).

This experiment can be described thus: Replicon Assay (luciferase, ET cell line). Type of experiment: cell-based, HCV. As to conditions: Hepatitis C virus; % inhibition of replication relative to no compound control, test concentration of 10 μM; ET cells, luciferase read 48-72 hours; read-out: % inhib at 10 uM. On the procedure: A cell line, ET (Huh-lucubineo-ET) was used for screening of compounds of the present invention for HCV RNA dependent RNA polymerase. The ET cell line was stably transfected with RNA transcripts harboring a I389luc-ubi-neo/NS3-3′/ET; replicon with firefly luciferase-ubiquitin-neomycin phosphotransferase fusion protein and EMCV-IRES driven NS3-5B polyprotein containing the cell culture adaptive mutations (E1202G; T1280I; K1846T) (Krieger at al, 2001 and unpublished). The ET cells were grown in DMEM, supplemented with 10% fetal calf serum, 2 mM Glutamine, Penicillin (100 IU/mL)/Stretomycin (100 μg/mL), 1× nonessential amino acids, and 250 μg/mL G418 (“Geneticin”). They were all available through Life Technologies (Bethesda, Md.). The cells were plated at 0.5−1.0×10^4 cells/well in the 96 well plates and incubated for 24 hrs before adding nucleoside analogs. […] Luciferase activity were measured 48-72 hours later by adding a lysis buffer and the substrate (Catalog number Glo-lysis buffer E2661 and Bright-Glo luciferase system E2620 Promega, Madison, Wis.). Cells should not be too confluent during the assay. Percent inhibition of replication was plotted relative to no compound control. Under the same condition, cytotoxicity of the compounds was determined using cell proliferation reagent, WST-1 (Roche, Germany). The compounds showing antiviral activities, but no significant cytotoxicities were chosen to determine IC50 and TC50. For these determinations, 10 concentration of each compound were used. Concentrations for test compounds typically span a range of 500 fold. IC50 and TC50 values were calculated by fitting % inhibition at each concentration (I) to the following equation: % inhibition=100%/[1+10^(log IC50−log(I))*b] where b is Hill's coefficient.
A general note: Replicon systems follow genome replication, usually without infectious particles.

With `CC1=NN(c2ccccc2)C(=O)/C1=C\c1ccc(NC(=O)[C@@H]2CCCN2C(=O)OCc2ccccc2)cc1` (stereo in doubt) [Compound 6005, 2-[4-(3-Methyl-5-oxo-1-phenyl-1,5-dihydro-pyrazol-4-ylidenemethyl)-phenylcarbamoyl]-pyrrolidine-1-carboxylic acid benzyl ester], the inhibition at 10 µM stood at 3.63%.
The same measure for `Cc1c(Br)cc2[nH]c(Cc3ccc(NC(=O)[C@@H]4CCCN4C(=O)OCc4ccccc4)cc3)nc2c1C` (stereo in doubt) [Compound 6006, 2-[4-(6-Bromo-4,5-dimethyl-1H-benzoimidazol-2-ylmethyl)-phenylcarbamoyl]-pyrrolidine-1-carboxylic acid benzyl ester]: 70%; for `Cc1ccc(S(=O)(=O)c2ccc(Oc3cccc(NC(=O)[C@@H]4CCCN4C(=O)OCc4ccccc4)c3)cc2)cc1` (stereo in doubt) [Compound 6027, 2-{3-[4-(Toluene-4-sulfonyl)-phenoxy]-phenylcarbamoyl}-pyrrolidine-1-carboxylic acid benzyl ester]: 98.1%; for `COc1cccc(OC)c1-c1cccc(NC(=O)[C@@H]2CCCN2C(=O)OCc2ccccc2)c1` (stereo in doubt) [Compound 6033, 2-(2′,6′-Dimethoxybiphenyl-3-yl-carbamoyl)-pyrrolidine-1-carboxylic acid benzyl ester]: 8.26%.
As for `O=C(Nc1ccc(Cc2nc3ccccc3[nH]2)cc1)[C@@H]1CCCN1C(=O)OCc1ccccc1` (stereo in doubt) [Compound 6038, 2-[4-(1H-Benzoimidazol-2-ylmethyl)-phenylcarbamoyl]-pyrrolidine-1-carboxylic acid benzyl ester], the inhibition at 10 µM was 9.34%.
On to `Cc1cccc(Oc2cc(NC(=O)[C@@H]3CCCN3C(=O)OCc3ccccc3)cc([N+](=O)[O-])c2)c1` (stereo in doubt) [Compound 6039, 2-(3-Nitro-5-m-tolyloxy-phenylcarbamoyl)-pyrrolidine-1-carboxylic acid benzyl ester], for which the inhibition at 10 µM was 33.8%.
For the molecule `COc1ccc(-c2ccc(NC(=O)[C@@H]3CCCN3C(=O)OCc3ccccc3)cc2)c(OC)c1` [Compound 6001, 2-(2′,4′-Dimethoxy-biphenyl-4-ylcarbamoyl)-pyrrolidine-1-carboxylic acid benzyl ester], the inhibition at 10 µM turned out to be 87.8%.
On to `O=C(Nc1ccc(NS(=O)(=O)c2ccccc2)cc1)[C@@H]1CCCN1C(=O)OCc1ccccc1` [Compound 6002, 2-(4-Benzenesulfonylamino-phenylcarbamoyl)-pyrrolidine-1-carboxylic acid benzyl ester], for which the inhibition at 10 µM was determined as 2.69%.
Take `CC1CCN(S(=O)(=O)c2ccc(NC(=O)[C@@H]3CCCN3C(=O)OCc3ccccc3)cc2)CC1` [Compound 6003, 2-[4-(4-Methyl-piperidine-1-sulfonyl)-phenylcarbamoyl]-pyrrolidine-1-carboxylic acid benzyl ester]: the inhibition at 10 µM stood at 1.21%.
Turning to `O=C(Nc1c(Cl)cccc1Cl)c1ccc(NC(=O)[C@@H]2CCCN2C(=O)OCc2ccccc2)cc1` [Compound 6004, 2-[4-(2,6-Dichloro-phenylcarbamoyl)-phenylcarbamoyl]-pyrrolidine-1-carboxylic acid benzyl ester], the inhibition at 10 µM came out at 2.08%.
As for `COc1ccc(OC)c(-c2ccc(NC(=O)[C@@H]3CCCN3C(=O)OCc3ccccc3)cc2)c1` [Compound 6007, 2-(2′,5′-Dimethoxy-biphenyl-4-ylcarbamoyl)-pyrrolidine-1-carboxylic acid benzyl ester], the inhibition at 10 µM amounted to 93.4%.
Under `COc1cccc(-c2cccc(NC(=O)[C@@H]3CCCN3C(=O)OCc3ccccc3)c2)c1` [Compound 6008, 2-(3′-Methoxy-biphenyl-3-ylcarbamoyl)-pyrrolidine-1-carboxylic acid benzyl ester] stands 79.8%; under `O=C(Nc1ccc(-c2ccc3[nH]ccc3c2)cc1)[C@@H]1CCCN1C(=O)OCc1ccccc1` [Compound 6009, 2-[4-(1H-Indol-5-yl)-phenylcarbamoyl]-pyrrolidine-1-carboxylic acid benzyl ester], 83.3%; under `O=C(Nc1cccc(-c2ccc3[nH]ccc3c2)c1)[C@@H]1CCCN1C(=O)OCc1ccccc1` [Compound 6010, 2-[3-(1H-Indol-5-yl)-phenylcarbamoyl]-pyrrolidine-1-carboxylic acid benzyl ester], 98.6%.
`O=C(Nc1ccc(-c2cccc(-c3ccccc3)c2)cc1)[C@@H]1CCCN1C(=O)OCc1ccccc1` [Compound 6011, 2-([1,1′;3′,1″]Terphenyl-4-ylcarbamoyl)-pyrrolidine-1-carboxylic acid benzyl ester]: the inhibition at 10 µM amounted to 99.7%.
Under `O=C(Nc1cccc(Oc2c(F)c(F)c(F)c(F)c2F)c1)[C@@H]1CCCN1C(=O)OCc1ccccc1` [Compound 6012, 2-(3-Pentafluorophenyloxy-phenylcarbamoyl)-pyrrolidine-1-carboxylic acid benzyl ester] stands 44.5%; under `O=C(Nc1cccc(S(=O)(=O)c2ccccc2)c1)[C@@H]1CCCN1C(=O)OCc1ccccc1` [Compound 6013, 2-(3-Benzenesulfonyl-phenylcarbamoyl)-pyrrolidine-1-carboxylic acid benzyl ester], 32.5%.
With `Cc1cc2nc(Cc3ccc(NC(=O)[C@@H]4CCCN4C(=O)OCc4ccccc4)cc3)[nH]c2cc1C` [Compound 6014, 2-[4-(5,6-Dimethyl-1H-benzoimidazol-2-ylmethyl)-phenylcarbamoyl]-pyrrolidine-1-carboxylic acid benzyl ester], the inhibition at 10 µM was determined as 99.6%.
Under `COc1ccc(-c2ccc(NC(=O)[C@@H]3CCCN3C(=O)OCc3ccccc3)cc2)cc1` [Compound 6019, 2-(4′-Methoxy-biphenyl-4-ylcarbamoyl)-pyrrolidine-1-carboxylic acid benzyl ester] stands 10.5%; under `O=C(Nc1ccc(Cc2nc3cc4ccccc4cc3[nH]2)cc1)[C@@H]1CCCN1C(=O)OCc1ccccc1` [Compound 6020, 2-[4-(1H-Naphtho[2,3-d]imidazol-2-ylmethyl)-phenylcarbamoyl]-pyrrolidine-1-carboxylic acid benzyl ester], 99.9%.
Consider `O=C(Nc1ccc(-c2cccc(COc3ccccc3)c2)cc1)[C@@H]1CCCN1C(=O)OCc1ccccc1` [Compound 6021, 2-(3′-Phenoxymethyl-biphenyl-4-ylcarbamoyl)-pyrrolidine-1-carboxylic acid benzyl ester], for which the inhibition at 10 µM came out at 56.1%.
The same measure for `O=C(Nc1cccc(-c2cccs2)c1)[C@@H]1CCCN1C(=O)OCc1ccccc1` [Compound 6022, 2-(3-Thiophen-2-yl-phenylcarbamoyl)-pyrrolidine-1-carboxylic acid benzyl ester]: 87.3%.
On to `O=C(Nc1ccc(-c2cccs2)cc1)[C@@H]1CCCN1C(=O)OCc1ccccc1` [Compound 6023, 2-(4-Thiophen-2-yl-phenylcarbamoyl)-pyrrolidine-1-carboxylic acid benzyl ester], for which the inhibition at 10 µM was 75.4%.
Consider `O=C(Nc1cc(Oc2ccccc2)cc(Oc2cccnc2)c1)[C@@H]1CCCN1C(=O)OCc1ccccc1` [Compound 6024, 2-[3-Phenoxy-5-(pyridin-3-yloxy)-phenylcarbamoyl]-pyrrolidine-1-carboxylic acid benzyl ester], for which the inhibition at 10 µM came out at 98.1%.
For the molecule `O=C(Nc1ccc(-c2nnc(-c3ccco3)o2)cc1)[C@@H]1CCCN1C(=O)OCc1ccccc1` [Compound 6025, 2-[4-(5-Furan-2-yl-[1,3,4]oxadiazol-2-yl)-phenylcarbamoyl]-pyrrolidine-1-carboxylic acid benzyl ester], the inhibition at 10 µM is 5.45%.
For the molecule `COc1cccc(-c2cccc(NC(=O)[C@@H]3CCCN3C(=O)OCc3ccccc3)c2)c1OC` [Compound 6026, 2-(2′,3′-Dimethoxybiphenyl-3-yl-carbamoyl)-pyrrolidine-1-carboxylic acid benzyl ester], the inhibition at 10 µM is 98.7%.
As to `COc1cccc(-c2ccc(NC(=O)[C@@H]3CCCN3C(=O)OCc3ccccc3)cc2)c1OC` [Compound 6028, 2-(2′,3′-Dimethoxy-biphenyl-4-ylcarbamoyl)-pyrrolidine-1-carboxylic acid benzyl ester], the inhibition at 10 µM came out at 75%.
Under `COc1ccc(-c2cccc(NC(=O)[C@@H]3CCCN3C(=O)OCc3ccccc3)c2)cc1OC` [Compound 6029, 2-(3′,4′-Dimethoxybiphenyl-3-yl-carbamoyl)-pyrrolidine-1-carboxylic acid benzyl ester] stands 3.08%.
The same measure for `COc1ccc2nc(NC(=O)c3ccc(NC(=O)[C@@H]4CCCN4C(=O)OCc4ccccc4)cc3)sc2c1` [Compound 6030, 2-[4-(6-Methoxy-benzothiazol-2-ylcarbamoyl)-phenylcarbamoyl]-pyrrolidine-1-carboxylic acid benzyl ester]: 42.2%.
